Legend:
[1] = test system: Human umbilical vein endothelial cells (HUVEC); test: Endothelial cell viability assay (trypan blue exclusion); details: for HUVEC cell viability vs control: 37° C., absence of any oxidants (unstressed); for HUVEC cell viability vs control / HUVEC cell survival in the presence of menadione: supplemented UW
Protocol: Human umbilical vein endothelial cells (HUVEC) were seeded in 162 ml flasks (Dulbecco's modified Eagle's medium 37° C., 5% CO2). Cells were cultured to confluence and transferred to 6-well culture dishes containing phosphate buffered saline (control), UW without GSH, UW+GSH (3 mM), UW+GSH-MEE (3 mM) or UW+GSNO for 24 h (37° C.) in the absence of any oxidants or in the presence of a hydroxyl radical generator (menadione; 10 μM), the superoxide generating system, xanthine+xanthine oxidase (5 μM; 1 mU/ml) or the oxidant species H2O2 (100 μM). Cell viability after 24 h incubations was assessed using a standard trypan blue exclusion assay.

aortic rings = test: Cold ischaemic storage of aortic rings in UW solutions followed by myograph reoxygenation; set-up: species or system Wistar rats; details: for endothelium-dependent relaxation (ACh) vs GSH-free UW: GSH 3 mM, GSHMEE 3 mM
Protocol: Animal care and experimental protocols were performed in accordance with the Home Office Guidance in the Operation of Animals (Scientific Procedures) Act 1986, UK. Adult male Wistar rats weighing 300-450 g were kept in a temperature-controlled environment with a 12 h light-dark cycle, and allowed free access to water and standard diet. University of Wisconsin solution was prepared according to standard protocol: Potassium lactobionate 100 mM, KH2PO4 25 mM, MgSO4 5 mM, raffinose 30 mM, adenosine 5 mM, allopurinol 1 mM, dexamethasone 16 mg/L, insulin 40 U/L, penicillin 200 000 U/L and EDTA 0.03 mM at pH 7.4. The EDTA was added in order to help protect GSNO against metal-ion catalysed decomposition. The solution was bubbled with argon gas for 1 hour to mimic hypoxia. Oxygen levels were confirmed using an oxygen electrode (Apollo 4000 integrated free radical analyser, World Precision Instruments Inc. USA). Bubbling for 30 minutes depleted >90% of oxygen in solution. Following cervical dislocation, laparotomy was performed and the aorta dissected with clearance of periaortic fat and connective tissue. Vessels were divided into 3-5 mm aortic rings with care taken not to stretch or damage the vessels. Aortic rings were subjected to cold ischaemic storage (4° C. for 1 or 48 hours) in sealed containers filled with hypoxic control (UW without GSH) solution; UW with GSH (3 mM); UW with glutathione monoethyl ester ([…]; 3 mM) or UW with S-nitrosated glutathione (GSNO; 100 μM). After storage, aortic rings were suspended between two stainless steel supports in a myograph (700MO, Danish Myo, Aarhus, Denmark) and reoxygenated in 10 ml organ baths containing Krebs buffer solution (mM): […] Resting tensions of 1.5 g were applied to all rings prior to equilibration (30 minutes). Following equilibration, all vessels were exposed to Krebs buffer containing a high concentration of potassium (60 mM) three times to assess tissue viability and to provide a reference maximum contraction for subsequent data analysis. Each response was followed by a washout. A concentration-response curve to the α1 adrenoceptor agonist, L-phenylephrine (PE; 10^-8M-3×10^-5M) was then constructed and used to identify the concentration of PE required to generate 80% maximal contraction (EC80) for subsequent vasodilator studies. Upon establishing stable contractions, cumulative concentration-response curves to the endothelium-dependent vasodilator, acetylcholine (ACh; 10^-9-10^-5M) were constructed in all preparations. Only one concentration-response curve was obtained per tissue. A further submaximal PE contraction was elicited and the NO synthase inhibitor, N^ω-nitro-L-arginine methyl ester (L-NAME) was applied to inhibit endogenous NO production and to determine the vasodilatory effect of endothelium-derived NO under basal (unstimulated) conditions. Subsequently, the NO scavenger, carboxy-PTIO (cPTIO; 1 mM), was added in order to establish the contribution of NOS-independent NO to any vasodilator tone existing under basal conditions.

[2] = Decomposition of GSNO in storage, absorbance at 339 nm; format: physicochemical
Protocol: The freezing point for DMSO is ˜15° C., so these samples were effectively “frozen” for the duration of the experiment, perhaps contributing to the stability of GSNO under these conditions. The apparent depression of absorbance at time zero in the DMSO sample is most likely attributable to incomplete dissolution of the material when the first measurement was taken.

[3] = after 48 h cold ischaemia, GSNO 100 μM

SMILES	HUVEC cell viability vs control ([1]; 24 h)	HUVEC cell survival in the presence of menadione ([1]; 24 h, menadione 10 μM)	endothelium-dependent relaxation (ACh) vs GSH-free UW (aortic rings; [3])	contraction on addition of L-NAME to precontracted tissues vs standard UW (aortic rings; after 48 h cold ischaemia)	further results
N[C@@H](CCC(=O)N[C@@H](CS)C(=O)NCC(=O)O)C(=O)O [GSH, Glutathione]	significantly reduced viability	significantly enhanced cell survival	significantly poorer endothelium-dependent relaxation	–	–
CCOC(=O)CNC(=O)[C@H](CS)NC(=O)CC[C@H](N)C(=O)O [GSH-MEE, glutathione monoethyl ester]	significantly reduced viability	significantly enhanced cell survival	no significant difference	significantly lesser contraction	–
N[C@@H](CCC(=O)N[C@@H](CSN=O)C(=O)NCC(=O)O)C(=O)O [GSNO, S-nitrosoglutathione]	not significantly different from control	ineffective	no significant difference	significantly lesser contraction	half-life at 100 µM ([2]; modified UW solution, modified UW (containing EDTA but excluding GSH), refrigerator in the dark at 4-6° C.): ~144 h; decomposition of GSNO in 100% DMSO ([2]; same time period, dark, 4-6° C., samples effectively frozen): did not show any significant decomposition; contraction on further addition of NO scavenger cPTIO vs standard UW (aortic rings; after 1 h cold ischaemia): significantly greater contraction; contraction on further addition of cPTIO vs standard UW (aortic rings; after 48 h cold ischaemia): significantly greater contraction; maximal contractions to PE vs GSH-free UW (aortic rings; [3]): significantly depressed maximal contractions
OO [H2O2]	–	–	–	–	effect of oxidant on HUVEC cell survival ([1]; 24 h, X/XO 5 μM, 1 mU/ml, H2O2 100 μM): substantial cell death
CC1=CC(=O)c2ccccc2C1=O [menadione]	–	–	–	–	cells surviving oxidant treatment under control conditions ([1]; 24 hr treatment, menadione 10 μM): less than 5%

Reference: patent US9131677B2, “Organ preservation solution” (University Court of the University of Edinburgh, priority 2006, dated 2015)
